In patent US8952024B2, “Herbicidal pyrimidone derivatives” (E I du Pont de Nemours and Company, priority 2009, dated 2015):

Legend:
Assay type in all cases: in vivo
[1] = test system: pigweed (Amaranthus retroflexus); test: Test A pre-/postemergence plant response; conditions: Postemergence
How it was run: (§1)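 Seeds planted in loam soil/sand blend; test chemicals in non-phytotoxic solvent mixture with surfactant applied as directed soil spray preemergence and, concurrently, postemergence to plants 2–10 cm tall at one- to two-leaf stage. Greenhouse ~10 days; visual injury vs untreated controls, 0 (no effect) to 100 (complete control).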

[2] = test system: velvetleaf (Abutilon theophrasti); test: Test A pre-/postemergence plant response
How it was run: as §1

[3] = test system: wheat (Triticum aestivum); test: Test A pre-/postemergence plant response
How it was run: as §1

[4] = test system: morningglory (Ipomoea spp.); test: Test A pre-/postemergence plant response
How it was run: as §1

[5] = test system: large crabgrass (Digitaria sanguinalis); test: Test A pre-/postemergence plant response
How it was run: as §1

[6] = test system: barnyardgrass (Echinochloa crus-galli); test: Test A pre-/postemergence plant response
How it was run: as §1

[7] = test system: giant foxtail (Setaria faberii); test: Test A pre-/postemergence plant response
How it was run: as §1

[8] = test system: corn (Zea mays); test: Test A pre-/postemergence plant response
How it was run: as §1

[9] = test system: umbrella sedge (Cyperus difformis); test: Test B flooded paddy test; conditions: for Plant response rating, Sedge, Umbrella: Flood (flooded paddy test), 13 to 15 days
How it was run: (§2)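 Visual scores run from 0 (no effect) to 100 (complete control), assigned by comparison with controls 13 to 15 days after treatment. Test compounds went straight into water standing 3 cm above the soil, around plants at the 2-leaf stage kept in a greenhouse.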

[10] = test system: rice (Oryza sativa); test: Test B flooded paddy test; conditions: for Plant response rating, Rice: Flood (flooded paddy test), 13 to 15 days
How it was run: as §2

[11] = test system: barnyardgrass (Echinochloa crus-galli); test: Test B flooded paddy test; conditions: for Plant response rating, Barnyardgrass: Flood (flooded paddy test), 13 to 15 days
How it was run: as §2

[12] = test system: ducksalad (Heteranthera limosa); test: Test B flooded paddy test; conditions: for Plant response rating, Ducksalad: Flood (flooded paddy test), 13 to 15 days
How it was run: as §2

[13] = test system: winter barley (Hordeum vulgare); test: Test B postemergence plant response
How it was run: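 Visual ratings from 0 (no effect) to 100 (complete control), made against controls 13–15 days after treatment, kept in a greenhouse. Compounds were applied postemergence to potted plants at the 1- to 4-leaf stage (2–18 cm).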

[14] = Postemergence, 125 g ai/ha, 0 to 100 scale where 0 is no effect and 100 is complete control
[15] = Postemergence, 500 g ai/ha, 0 to 100 scale, 0 = no effect, 100 = complete control, approx. ten days
[16] = Preemergence, 125 g ai/ha, 0 to 100 scale, 0 = no effect, 100 = complete control
[17] = Preemergence, 500 g ai/ha, visual injury, 0 to 100 scale (0 no effect, 100 complete control), approx. ten days
[18] = 250 g ai/ha, flooded paddy test, visual rating on 0 to 100 scale (0 no effect, 100 complete control) after 13 to 15 days
[19] = 62 g ai/ha, scale of 0 to 100 where 0 is no effect and 100 is complete control
[20] = 125 g ai/ha, scale 0 to 100, 0 is no effect, 100 is complete control
[21] = Flood, 31 g ai/ha, scale 0 to 100 (0 no effect, 100 complete control)

## COCCn1c(-c2ccccc2)ncc(C(=O)C2=C(O)CCCC2=O)c1=O [Compound 85]
[1]; 125 g ai/ha, 0 to 100 scale where 0 is no effect and 100 is complete control
  Plant response rating, Pigweed: 100
[1]; 500 g ai/ha, 0 to 100 scale, 0 = no effect, 100 = complete control, approx. ten days
  Plant response rating, Pigweed: 100
[2]; [14]
  Plant response rating, Velvetleaf: 100
[2]; [15]
  Plant response rating, Velvetleaf: 100
[2]; [16]
  Plant response rating, Velvetleaf: 70
[3]; [14]
  Plant response rating, Wheat: 0
[3]; [15]
  Plant response rating, Wheat: 40
[3]; [16]
  Plant response rating, Wheat: 0
[3]; [17]
  Plant response rating, Wheat: 40
[4]; [14]
  Plant response rating, Morningglory: 100
[4]; [15]
  Plant response rating, Morningglory: 100
[4]; [16]
  Plant response rating, Morningglory: 50
[4]; [17]
  Plant response rating, Morningglory: 80
[5]; [14]
  Plant response rating, Crabgrass, Large: 90
[5]; [15]
  Plant response rating, Crabgrass, Large: 90
[5]; [16]
  Plant response rating, Crabgrass, Large: 100
[5]; [17]
  Plant response rating, Crabgrass, Large: 100
[6]; [14]
  Plant response rating, Barnyardgrass: 90
[6]; [15]
  Plant response rating, Barnyardgrass: 90
[6]; [16]
  Plant response rating, Barnyardgrass: 50
[6]; [17]
  Plant response rating, Barnyardgrass: 100
[7]; [14]
  Plant response rating, Foxtail, Giant: 70
[7]; [15]
  Plant response rating, Foxtail, Giant: 90
[7]; [17]
  Plant response rating, Foxtail, Giant: 90
[8]; [14]
  Plant response rating, Corn: 10
[8]; [15]
  Plant response rating, Corn: 80
[8]; [16]
  Plant response rating, Corn: 0
[8]; [17]
  Plant response rating, Corn: 10
[9]; [18]
  Plant response rating, Flood, Sedge, Umbrella: 80
[9]; [19]
  Plant response rating, Sedge, Umbrella: 75
[9]; [20]
  Plant response rating, Sedge, Umbrella: 80
[9]; [21]
  Sedge, Umbrella plant response rating: 50
[10]; [18]
  Plant response rating, Flood, Rice: 20
[10]; [19]
  Plant response rating, Rice: 0
[10]; [20]
  Plant response rating, Rice: 15
[10]; [21]
  Rice plant response rating: 0
[11]; [18]
  Plant response rating, Flood, Barnyardgrass: 65
[11]; [19]
  Plant response rating, Barnyardgrass: 25
[11]; [20]
  Plant response rating, Barnyardgrass: 55
[11]; [21]
  Barnyardgrass plant response rating: 25
[12]; [18]
  Plant response rating, Flood, Ducksalad: 65
[12]; [19]
  Plant response rating, Ducksalad: 50
[12]; [20]
  Plant response rating, Ducksalad: 60
[12]; [21]
  Ducksalad plant response rating: 40
[13]; 31 g ai/ha, postemergence, scale 0 to 100, 0 is no effect, 100 is complete control
  Plant response rating, Barley: 5
[13]; 62 g ai/ha, postemergence, 0 is no effect, 100 is complete control, 13 to 15 days
  Barley plant response rating (0 to 100 scale): 10
[13]; Postemergence, 125 g ai/ha, visual rating after 13 to 15 days, scale 0 (no effect) to 100 (complete control)
  Plant response rating, Barley: 20
[13]; Postemergence, 250 g ai/ha, scale 0 to 100 (0 no effect, 100 complete control)
  Plant response rating, Barley: 20
